From patent US8841349B2, “Stabilize compositions based on monoalkyl glycerol ethers and aromatic alcohols” (Air Liquide Sante (International), priority 2003, dated 2014)

Tested on: mixed suspension (Group 5) of the four test microbe groups
Experiment: Koko test (pack preservation, repeated inoculation challenge) of aqueous working solutions in Ringer's solution
Format: cell-based
Conditions: for Koko results: microbial growth of streaks, inoculation cycle 1: inoculation cycle 1; Ringer's solution as product; use concentration 0.5% for 1), 0.6% for 2), 2.0% for 3) and 4); for Koko results: microbial growth of streaks, inoculation cycle 2: inoculation cycle 2; Ringer's solution as product; use concentration 0.5% for 1), 0.6% for 2), 2.0% for 3) and 4); for Koko results: microbial growth of streaks, inoculation cycle 3: inoculation cycle 3; Ringer's solution as product; use concentration 0.5% for 1), 0.6% for 2), 2.0% for 3) and 4); for Koko results: microbial growth of streaks, inoculation cycle 4: inoculation cycle 4; Ringer's solution as product; use concentration 0.5% for 1), 0.6% for 2), 2.0% for 3) and 4); for Koko results: microbial growth of streaks, inoculation cycle 5: inoculation cycle 5; Ringer's solution as product; use concentration 0.5% for 1), 0.6% for 2), 2.0% for 3) and 4); for Koko results: microbial growth of streaks, inoculation cycle 6: inoculation cycle 6; Ringer's solution as product; use concentration 0.5% for 1), 0.6% for 2), 2.0% for 3) and 4)
Method: Unless expressly stated otherwise, all of the percentages are percentages by weight. Aqueous working solutions were investigated using Ringer's solution as product in the Koko test.
Using the described method, the effectiveness of chemical preservatives (stabilizer compositions) is tested with regard to the pack preservation for cosmetic formulations. For this purpose, the compositions to be investigated are added in varying concentrations to the unstabilized samples in various experimental batches. A continuous microbial burden is achieved by periodically inoculating the experimental batches. In parallel to the inoculation, streaks of each of the individual batches are in each case made immediately beforehand. Assessment is made by reference to the microbial growth of the streaks.
• CSA (casein peptone soya flour peptone agar) • SA (Sabouraud dextrose agar) • SA slant tube • CSA+TLSH (No. 4) • SA-TLSH (No. 10) • NaCl (physiological sodium chloride solution, […]) • TLSH (disinhibiting medium for bacteria=Tween 80+lecithin+saponin+histidine)
The test microbe used was the mixed suspension (Group 5) of the following four test microbe groups.
Cultivation of the Test Microbes • Bacteria: streaking using a sterile glass rod on CS agar • Yeasts: streaking using a sterile glass rod on SA agar • Fungi: Aspergillus niger is transferred to 4 SA slant tubes • Penicillium funiculosum is transferred to SA agar plates
All of the test microbes are incubated for one week at 25° C.±2° C. The test microbes are replaced at intervals of 3 to 4 months.
The bacteria are rinsed off with 5 ml of NaCl solution in each case, filtered through a glass funnel containing glass wool into a 100 ml measuring cylinder and made up to 100 ml with NaCl. The bacterial suspensions have a titre of about 10^9 CFU/ml.
Three Aspergillus niger slant tubes are each shaken with 3 ml of NaCl solution on a Heldolph stirrer and introduced through a glass funnel containing glass wool. The yeast Candida albicans is rinsed off with 5 ml of NaCl and likewise poured through the glass funnel. 5 ml of a Penicillium funiculosum suspension are added to this mixture and made up to 100 ml with NaCl. The fungal suspension has a titre of about 10^5-9 CFU/ml.
The inoculation solution actually used is prepared as described above (Groups 1 to 4). After rinsing off, these are mixed and then made up to 100 ml with NaCl.
The microbial suspension was transferred to sterile glass-stoppered bottles containing glass beads and shaken for 5 min at a shaking frequency (to-and-fro movement) of 200 units/min. The microbial content of the mixed suspension is 10^9 CFU/ml. The suspension should be used on the day of preparation, but can also be used after 24 hours upon storage in a refrigerator.
In separate batches, 25 g of the cosmetic to be tested are mixed in each case with the compositions to be investigated in varying concentrations. The growth control used in each case is an unstabilized product sample. The test batches are streaked onto CSA/TLSH and SA/TLSH once per week following thorough stirring using a sterile glass rod, the first streaking being carried out directly prior to reinoculation. All of the samples are inoculated with 0.1 ml of the respective microbial suspension and thoroughly stirred.
The microbial growth of the streaks is assessed after incubation for three days at 25° C.±2° C. To be on the safe side, negative streaks are observed for a further two days and reassessed. The stabilizing action of the individual product concentration is assessed in a semiqualitative method by means of the growth of the individual streaks.
The test is usually carried out over six inoculation cycles and terminated after massive growth on two occasions.
A composition is considered good if it exists under the laboratory conditions given above for a period of six weeks without microbial attack of the sample batches, i.e. even after the sixth inoculation, no microbial growth can be detected.

Row | Compound | Koko results: microbial growth of streaks, inoculation cycle 1 | Koko results: microbial growth of streaks, inoculation cycle 2 | Koko results: microbial growth of streaks, inoculation cycle 3 | Koko results: microbial growth of streaks, inoculation cycle 4 | Koko results: microbial growth of streaks, inoculation cycle 5 | Koko results: microbial growth of streaks, inoculation cycle 6
1 | O=C([O-])CNCO.[Na+] [1), sodium hydroxymethyl-glycinate] | +Y | +Y | +Y | +Y | +Y | +Y
2 | CC1(C)C(=O)N(CO)C(=O)N1CO [2), dimethyldimethylolhydantoin] | +B | ++B | ++B | ++B | ++B | ++B
